± gives the expanded uncertainty stated by the source.
Experiment: mn = molality of the nth substance listed, in mol/kg
Conditions: 100 kPa, Liquid; for viscosity: Falling or rolling sphere viscometry; for mass density: Vibrating tube method; for electrical conductivity: Alternating current cell with electrodes

`CCC(=O)OCCN1CCNCC1` [2-(piperazin-1-yl)ethyl propionate] + CCO showed a viscosity (308.15 K, m1 = 1) of 1.841 ± 0.023 mPa·s, a viscosity (308.15 K, m1 = 1.198) of 2.166 ± 0.027 mPa·s and a viscosity (308.15 K, m1 = 1.401) of 2.605 ± 0.032 mPa·s. It also gave a viscosity (308.15 K, m1 = 1.602) of 3.182 ± 0.039 mPa·s, a viscosity (308.15 K, m1 = 1.8) of 3.932 ± 0.049 mPa·s and a viscosity (308.15 K, m1 = 2.001) of 5.113 ± 0.063 mPa·s. It also gave a viscosity (308.15 K, m1 = 2.198) of 6.285 ± 0.078 mPa·s, a viscosity (308.15 K, m1 = 2.397) of 7.874 ± 0.097 mPa·s and a viscosity (308.15 K, m1 = 2.597) of 11.18 ± 0.14 mPa·s. It also gave a viscosity (308.15 K, m1 = 2.796) of 14.4 ± 0.18 mPa·s, a viscosity (308.15 K, m1 = 3.006) of 20.29 ± 0.25 mPa·s and a mass density (308.15 K, m1 = 0.05) of 779.32 ± 0.16 kg/m3. For the same compound, the mass density (308.15 K, m1 = 0.1) was 782.05 ± 0.15 kg/m3, the mass density (308.15 K, m1 = 0.1985) was 787.4 ± 0.15 kg/m3 and the mass density (308.15 K, m1 = 0.3005) was 793.06 ± 0.15 kg/m3. For the same compound, the mass density (308.15 K, m1 = 0.4001) was 798.51 ± 0.15 kg/m3, the mass density (308.15 K, m1 = 0.5007) was 804.18 ± 0.15 kg/m3 and the mass density (308.15 K, m1 = 0.5998) was 809.68 ± 0.15 kg/m3. The mass density (308.15 K, m1 = 0.7002) was 815.4 ± 0.15 kg/m3, the mass density (308.15 K, m1 = 0.8) was 821.15 ± 0.15 kg/m3 and the mass density (308.15 K, m1 = 0.8957) was 826.9 ± 0.14 kg/m3. For the same compound, the mass density (308.15 K, m1 = 1) was 832.84 ± 0.14 kg/m3, the mass density (308.15 K, m1 = 1.198) was 844.51 ± 0.14 kg/m3 and the mass density (308.15 K, m1 = 1.401) was 857.11 ± 0.14 kg/m3. It also gave a mass density (308.15 K, m1 = 1.602) of 869.1 ± 0.13 kg/m3, a mass density (308.15 K, m1 = 1.8) of 881.5 ± 0.13 kg/m3 and a mass density (308.15 K, m1 = 2.001) of 894.88 ± 0.13 kg/m3. The mass density (308.15 K, m1 = 2.198) was 906.86 ± 0.13 kg/m3, the mass density (308.15 K, m1 = 2.397) was 920.09 ± 0.12 kg/m3 and the mass density (308.15 K, m1 = 2.597) was 933.36 ± 0.12 kg/m3. The mass density (308.15 K, m1 = 2.796) was 946.62 ± 0.12 kg/m3, the mass density (308.15 K, m1 = 3.006) was 960.85 ± 0.12 kg/m3 and the electrical conductivity (313.15 K, m1 = 0.05) was 0.0197 ± 0.0002 S/m. For the same compound, the electrical conductivity (313.15 K, m1 = 0.1) was 0.0323 ± 0.0003 S/m, the electrical conductivity (313.15 K, m1 = 0.1985) was 0.0513 ± 0.0005 S/m and the electrical conductivity (313.15 K, m1 = 0.3005) was 0.0674 ± 0.0007 S/m. The electrical conductivity (313.15 K, m1 = 0.4001) was 0.0806 ± 0.0008 S/m, the electrical conductivity (313.15 K, m1 = 0.5007) was 0.0937 ± 0.0009 S/m and the electrical conductivity (313.15 K, m1 = 0.5998) was 0.1048 ± 0.001 S/m. The electrical conductivity (313.15 K, m1 = 0.7002) was 0.1144 ± 0.0011 S/m, the electrical conductivity (313.15 K, m1 = 0.8) was 0.125 ± 0.0013 S/m and the electrical conductivity (313.15 K, m1 = 0.8957) was 0.1335 ± 0.0013 S/m. The electrical conductivity (313.15 K, m1 = 1) was 0.1433 ± 0.0014 S/m, the electrical conductivity (313.15 K, m1 = 1.198) was 0.158 ± 0.0016 S/m and the electrical conductivity (313.15 K, m1 = 1.401) was 0.1717 ± 0.0017 S/m. The electrical conductivity (313.15 K, m1 = 1.602) was 0.1817 ± 0.0018 S/m, the electrical conductivity (313.15 K, m1 = 1.8) was 0.189 ± 0.0019 S/m and the electrical conductivity (313.15 K, m1 = 2.001) was 0.1932 ± 0.0019 S/m. The electrical conductivity (313.15 K, m1 = 2.198) was 0.1946 ± 0.0019 S/m, the electrical conductivity (313.15 K, m1 = 2.397) was 0.193 ± 0.0019 S/m and the electrical conductivity (313.15 K, m1 = 2.597) was 0.1842 ± 0.0018 S/m. It also gave an electrical conductivity (313.15 K, m1 = 2.796) of 0.177 ± 0.0018 S/m, an electrical conductivity (313.15 K, m1 = 3.006) of 0.166 ± 0.0017 S/m and a viscosity (313.15 K, m1 = 0.05) of 0.856 ± 0.011 mPa·s. The viscosity (313.15 K, m1 = 0.1) was 0.893 ± 0.011 mPa·s, the viscosity (313.15 K, m1 = 0.1985) was 0.939 ± 0.012 mPa·s and the viscosity (313.15 K, m1 = 0.3005) was 1.003 ± 0.012 mPa·s. For the same compound, the viscosity (313.15 K, m1 = 0.4001) was 1.066 ± 0.013 mPa·s, the viscosity (313.15 K, m1 = 0.5007) was 1.145 ± 0.014 mPa·s and the viscosity (313.15 K, m1 = 0.5998) was 1.225 ± 0.015 mPa·s. For the same compound, the viscosity (313.15 K, m1 = 0.7002) was 1.317 ± 0.016 mPa·s, the viscosity (313.15 K, m1 = 0.8) was 1.435 ± 0.018 mPa·s and the viscosity (313.15 K, m1 = 0.8957) was 1.529 ± 0.019 mPa·s. For the same compound, the viscosity (313.15 K, m1 = 1) was 1.655 ± 0.02 mPa·s, the viscosity (313.15 K, m1 = 1.198) was 1.94 ± 0.024 mPa·s and the viscosity (313.15 K, m1 = 1.401) was 2.319 ± 0.029 mPa·s. It also gave a viscosity (313.15 K, m1 = 1.602) of 2.817 ± 0.035 mPa·s, a viscosity (313.15 K, m1 = 1.8) of 3.459 ± 0.043 mPa·s and a viscosity (313.15 K, m1 = 2.001) of 4.464 ± 0.055 mPa·s. For the same compound, the viscosity (313.15 K, m1 = 2.198) was 5.328 ± 0.066 mPa·s, the viscosity (313.15 K, m1 = 2.397) was 6.774 ± 0.084 mPa·s and the viscosity (313.15 K, m1 = 2.597) was 9.473 ± 0.12 mPa·s. It also gave a viscosity (313.15 K, m1 = 2.796) of 12.12 ± 0.15 mPa·s, a viscosity (313.15 K, m1 = 3.006) of 16.88 ± 0.21 mPa·s and a mass density (313.15 K, m1 = 0.05) of 774.92 ± 0.16 kg/m3. For the same compound, the mass density (313.15 K, m1 = 0.1) was 777.65 ± 0.16 kg/m3, the mass density (313.15 K, m1 = 0.1985) was 783 ± 0.15 kg/m3 and the mass density (313.15 K, m1 = 0.3005) was 788.67 ± 0.15 kg/m3. The mass density (313.15 K, m1 = 0.4001) was 794.13 ± 0.15 kg/m3, the mass density (313.15 K, m1 = 0.5007) was 799.81 ± 0.15 kg/m3 and the mass density (313.15 K, m1 = 0.5998) was 805.32 ± 0.15 kg/m3. It also gave a mass density (313.15 K, m1 = 0.7002) of 811.06 ± 0.15 kg/m3, a mass density (313.15 K, m1 = 0.8) of 816.82 ± 0.15 kg/m3 and a mass density (313.15 K, m1 = 0.8957) of 822.6 ± 0.14 kg/m3. For the same compound, the mass density (313.15 K, m1 = 1) was 828.55 ± 0.14 kg/m3, the mass density (313.15 K, m1 = 1.198) was 840.27 ± 0.14 kg/m3 and the mass density (313.15 K, m1 = 1.401) was 852.89 ± 0.14 kg/m3. For the same compound, the mass density (313.15 K, m1 = 1.602) was 864.93 ± 0.14 kg/m3, the mass density (313.15 K, m1 = 1.8) was 877.36 ± 0.13 kg/m3 and the mass density (313.15 K, m1 = 2.001) was 890.78 ± 0.13 kg/m3. It also gave a mass density (313.15 K, m1 = 2.198) of 902.73 ± 0.13 kg/m3, a mass density (313.15 K, m1 = 2.397) of 916.08 ± 0.12 kg/m3 and a mass density (313.15 K, m1 = 2.597) of 929.4 ± 0.12 kg/m3. For the same compound, the mass density (313.15 K, m1 = 2.796) was 942.71 ± 0.12 kg/m3, the mass density (313.15 K, m1 = 3.006) was 956.85 ± 0.12 kg/m3 and the electrical conductivity (318.15 K, m1 = 0.05) was 0.0198 ± 0.0002 S/m. It also gave an electrical conductivity (318.15 K, m1 = 0.1) of 0.0328 ± 0.0003 S/m, an electrical conductivity (318.15 K, m1 = 0.1985) of 0.0525 ± 0.0005 S/m and an electrical conductivity (318.15 K, m1 = 0.3005) of 0.0694 ± 0.0007 S/m. For the same compound, the electrical conductivity (318.15 K, m1 = 0.4001) was 0.0833 ± 0.0008 S/m, the electrical conductivity (318.15 K, m1 = 0.5007) was 0.0972 ± 0.001 S/m and the electrical conductivity (318.15 K, m1 = 0.5998) was 0.109 ± 0.0011 S/m. It also gave an electrical conductivity (318.15 K, m1 = 0.7002) of 0.119 ± 0.0012 S/m, an electrical conductivity (318.15 K, m1 = 0.8) of 0.1309 ± 0.0013 S/m and an electrical conductivity (318.15 K, m1 = 0.8957) of 0.14 ± 0.0014 S/m. It also gave an electrical conductivity (318.15 K, m1 = 1) of 0.1514 ± 0.0015 S/m, an electrical conductivity (318.15 K, m1 = 1.198) of 0.168 ± 0.0017 S/m and an electrical conductivity (318.15 K, m1 = 1.401) of 0.1837 ± 0.0018 S/m. For the same compound, the electrical conductivity (318.15 K, m1 = 1.602) was 0.195 ± 0.002 S/m and the electrical conductivity (318.15 K, m1 = 1.8) was 0.204 ± 0.002 S/m.

From the NIST ThermoML archive (doi:10.1021/je500380x)
